Data: PubChem BioAssay AID2060343 (Molecular Pharmacology Branch, DTP, NCI, 2025)
pIC50: −log10 of the molar value.

Tested on: 138582-337-R-J1-PDC spheroids with HUVEC/MSC, viability
Assay: Anticancer human tumor 138582-337-R-J1-PDC patient-derived Merkel cell tumor cell line growth inhibition [IpAb]
Details: for pIC50: curve of first compound; for viability, T/C: stronger effect = lower value
Text: Combinatorial screen of targeted agents with ipatasertib and abemaciclib in multi-cell type tumor spheroids
A high-throughput screen of multi-cell type tumor spheroids was designed to identify active combinations of targeted small molecules and ipatasertib or abemaciclib. Complex spheroids include a stromal component modeled by human endothelial cells (HUVEC) and fibroblasts modeled by human mesenchymal stem cells (MSCs). The concentration ranges selected for each drug and investigational agent were based upon clinically achievable concentrations if the clinical Cmax of the agent was known.
Compounds. The drugs and investigational agents: ipatasertib (NSC767898), abemaciclib(NSC768073), selumetinib (NSC741078), trametinib (758246), adavosertib (NSC754352), everolimus (NSC733504), sapanisertib (NSC764658), vemurafenib (NSC761431), venetoclax (NSC766270), copanlisib (NSC809693), apelisib (NSC765974), palbociblib (NSC758247), vemurafenib (NSC761431), dabrafenib (NSC764134), ravoxertinib (NSC781343), BMS-387032 (NSC767048), sotorasib (NSC818433), talazoparib (NSC767125) and afursertib (NSC778305), were obtained from the National Cancer Institute (NCI) Developmental Therapeutics Program Chemical Repository. The FDA-approved anticancer drug set is available from the NCI Developmental Therapeutics Program. […] The stock solutions were prepared in dimethyl sulfoxide (DMSO, Sigma-Aldrich, St. Louis, MO, cat. D2650) at 800-fold the tested concentration and stored at -70 degrees C prior to their use. All drugs and investigational agents were tested over a range starting from a high concentration at or near the clinical Cmax and decreasing in half-log increments. If the clinical Cmax for an agent had not been determined, the highest concentration tested was 10 microM.
NCI60 Cell Culture. NCI60 cell lines were obtained from the NCI Developmental Therapeutics Program Tumor Repository. For each lot of cells, the Repository performed Applied Biosystems AmpFLSTR Identifiler testing with PCR amplification to confirm consistency with the published Identifier STR profile for each cell line. Cells were kept in continuous culture for no more than 20 passages. The optimal seeding densities for each of the cell lines at each time point assessed were determined prior to performing the concentration response studies. Briefly, the NCI60 human tumor lines were grown as monolayers in RPMI 1640 medium supplemented with 10% FBS and 2 mmol/L L-glutamine.
An additional 9 lines were from the NCI60 cell line panel including MDA-MB-231 breast carcinoma, MDA-MB-468 breast carcinoma, MCF7 breast carcinoma, Hs578T breast carcinoma, MALME-3M melanoma, SK-MEL-2 melanoma, SK-OV-3 ovarian carcinoma, DU-145 prostate carcinoma, PC-3 prostate carcinoma, all cell lines along with major genetic alterations are listed on Table 2. Pooled donor human umbilical vein endothelial cells (HUVEC, Lonza, cat. CC-2519) and human mesenchymal stem cells (hMSC, Lonza, cat. PT-2501) were purchased from Lonza (Walkersville, MD).
PDMR cell lines were grown in complete medium (DC medium): Dulbecco's modified Eagle's medium (DMEM)/F12 supplemented with 5% fetal bovine serum (FBS), 2 mM L-glutamine, 100 U/mL penicillin and 100 µg/ml streptomycin, 0.4 µg/ml hydrocortisone, 10 ng/ml epidermal growth factor (EGF) recombinant human protein, 24 µg/mL adenine, and 0.1 mg/mL primocin. During culture from frozen stock vials, PDMR cells were cultured in the same medium containing 10 µM Y-27632 (see Table 3). The PDCs were cultured in complete DMEM/F12 media without 10 microM Y-27632 dihydrochloride for at least two passages prior to the screen. The pooled donor HUVEC and hMSC were cultured in endothelial cell growth medium 2 (PromoCell, Heidelberg, Germany, cat. C-22011) and mesenchymal stem cell growth medium 2 (PromoCell, cat. C-28009), respectively. For all experiments, HUVEC and hMSC were used at passages </=5.
[…]
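Note: spheroids exposed to compounds for seven days.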
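Throughout, for viability, T/C: 100% = DMSO vehicle control viability.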

SMILES: CC(=O)c1c(C)c2cnc(Nc3ccc(N4CCNCC4)cn3)nc2n(C2CCCC2)c1=O + CC(C)NCC(C(=O)N1CCN(c2ncnc3c2C(C)CC3O)CC1)c1ccc(Cl)cc1
- pIC50 (second compound 0.1 µM): < 6.52
- pIC50 (second compound 0.316 µM): < 6.52
- pIC50 (second compound 1 µM): < 6.52
- pIC50 (second compound 3.16 µM): < 6.52
- pIC50 (second compound 10 µM): > 9.02
- viability, T/C (second compound 0.1 µM, first compound 0.000949 µM): 101%
- viability, T/C (second compound 0.1 µM, first compound 0.003 µM): 98.6%
- viability, T/C (second compound 0.1 µM, first compound 0.00949 µM): 92.3%
- viability, T/C (second compound 0.1 µM, first compound 0.03 µM): 94.3%
- viability, T/C (second compound 0.1 µM, first compound 0.0949 µM): 89.2%
- viability, T/C (second compound 0.1 µM, first compound 0.3 µM): 103%
- viability, T/C (second compound 0.316 µM, first compound 0.000949 µM): 76.2%
- viability, T/C (second compound 0.316 µM, first compound 0.003 µM): 74.1%
- viability, T/C (second compound 0.316 µM, first compound 0.00949 µM): 78.6%
- viability, T/C (second compound 0.316 µM, first compound 0.03 µM): 80.7%
- viability, T/C (second compound 0.316 µM, first compound 0.0949 µM): 66.5%
- viability, T/C (second compound 0.316 µM, first compound 0.3 µM): 80.6%
- viability, T/C (second compound 1 µM, first compound 0.000949 µM): 65.5%
- viability, T/C (second compound 1 µM, first compound 0.003 µM): 62.5%
- viability, T/C (second compound 1 µM, first compound 0.00949 µM): 59.6%
- viability, T/C (second compound 1 µM, first compound 0.03 µM): 52.8%
- viability, T/C (second compound 1 µM, first compound 0.0949 µM): 65%
- viability, T/C (second compound 1 µM, first compound 0.3 µM): 64.3%
- viability, T/C (second compound 3.16 µM, first compound 0.000949 µM): 51%
- viability, T/C (second compound 3.16 µM, first compound 0.003 µM): 54.5%
- viability, T/C (second compound 3.16 µM, first compound 0.00949 µM): 54%
- viability, T/C (second compound 3.16 µM, first compound 0.03 µM): 47.1%
- viability, T/C (second compound 3.16 µM, first compound 0.0949 µM): 61.6%
- viability, T/C (second compound 3.16 µM, first compound 0.3 µM): 47%
- viability, T/C (second compound 10 µM, first compound 0.000949 µM): 45.1%
- viability, T/C (second compound 10 µM, first compound 0.003 µM): 44.3%
- viability, T/C (second compound 10 µM, first compound 0.00949 µM): 45%
- viability, T/C (second compound 10 µM, first compound 0.03 µM): 38.9%
- viability, T/C (second compound 10 µM, first compound 0.0949 µM): 37.8%
- viability, T/C (second compound 10 µM, first compound 0.3 µM): 44.1%
